Experimental data as given in patent US20100305139A1, “METHOD OF TREATING ABNORMAL LIPID METABOLISM” (MITSUBISHI TANABE PHARMA CORPORATION, priority 2005, published 2010).

Tests used:
[1] = tested on: ZF rat; assay: Oral fat loading in ZF rat (abnormal lipid and glucose metabolism); type: in vivo
Protocol: Effect of Compound 3 on Abnormal Lipid Metabolism and Abnormal Glucose Metabolism after Oral Fat Loading in ZF Rat
The test was performed using male ZF rats. The rats were divided into two groups (10 rats/group). Compound 3 (1 mg/kg) or a 0.5% hydroxypropylmethylcellulose solution, which was a vehicle used to dissolve the compound, was administered by gavage to each of the rats. The administered volume was 2 mL/kg for both. At 15 min after the administration, a fat emulsion (main component was soybean oil, Intralipos; Otsuka Pharmaceutical Factory, Inc.) was orally loaded at the rate of 10 mL/kg. Blood samples were sequentially collected, and plasma TG concentration, free fatty acids concentration, glucose concentration and insulin concentration were measured.

[2] = tested on: fat-loaded ZF rat; assay: Oral glucose loading in fat-loaded ZF rat; type: in vivo
Protocol: Effect of Compound 3 on Increase in Plasma Glucose after Oral Glucose Loading in Fat-Loaded ZF Rat
The test was performed using male ZF rats. The number of experimental examples was 10 for each group. […] The administered volume was 2 mL/kg for both. At 15 min after the administration, a fat emulsion (main component was soybean oil, Intralipos; Otsuka Pharmaceutical Factory, Inc.) was orally loaded at the rate of […]. Furthermore, at 6 hr after the administration of fat emulsion, a mixed carbohydrate solution of starch, sucrose and lactose (mixing ratio 6:3:1) was orally administered at 3.5 g/kg. The volume administered of each of the fat emulsion and the carbohydrate solution was 10 mL/kg. Blood samples were sequentially collected, and plasma glucose concentration was measured.

[3] = tested on: Wistar rat; assay: Fasting blood sugar level in Wistar rat
[4] = tested on: rats with type 2 diabetes; conditions: non-patent reference 7; cited from earlier work
[5] = ZF rat, summary statement, dose not given

Compound: Br.Cc1cc(N2CCN([C@@H]3CN[C@H](C(=O)N4CCSC4)C3)CC2)n(-c2ccccc2)n1 [compound 1, 3-{(2S,4S)-4-[4-(3-methyl-1-phenyl-1H-pyrazol-5-yl)piperazin-1-yl]pyrrolidin-2-ylcarbonyl}thiazolidine hydrobromide]
- blood glucose increase after the fat loading [1, 5]: suppresses
- increase in the plasma TG concentration after fat loading ([1]; obese Zucker fatty rat having insulin resistance, summary statement, dose not given): suppresses
- blood glucose increase after glucose loading in an oral glucose loading test after fat loading [2, 5]: markedly suppresses
- hypoglycemia ([3]; summary statement, unlike insulin secretagogue, dose not given): does not induce hypoglycemia

Compound: Br.Br.Br.Br.Br.Cc1cc(N2CCN([C@@H]3CN[C@H](C(=O)N4CCSC4)C3)CC2)n(-c2ccccc2)n1.Cc1cc(N2CCN([C@@H]3CN[C@H](C(=O)N4CCSC4)C3)CC2)n(-c2ccccc2)n1 [compound 3, 3-{(2S,4S)-4-[4-(3-methyl-1-phenyl-1H-pyrazol-5-yl)piperazin-1-yl]pyrrolidin-2-ylcarbonyl}thiazolidine 2.5 hydrobromide]
- increase in the plasma TG concentration after fat loading ([1]; male ZF rats, 1 mg/kg by gavage 15 min before oral fat emulsion 10 mL/kg, change from value before fat loading (FIG. 1)): suppressed
- increase in the plasma free fatty acids concentration after fat loading ([1]; male ZF rats, 1 mg/kg by gavage 15 min before oral fat emulsion 10 mL/kg, change from value before fat loading (FIG. 2)): suppressed
- increase in the plasma glucose concentration after fat loading ([1]; male ZF rats, 1 mg/kg by gavage 15 min before oral fat emulsion 10 mL/kg, change from value before fat loading (FIG. 3)): suppressed
- plasma insulin concentration after fat loading ([1]; male ZF rats, 1 mg/kg by gavage 15 min before oral fat emulsion 10 mL/kg, change from value before fat loading (FIG. 4)): transiently increased
- increase in the baseline plasma glucose concentration by fat loading ([2]; male fat-loaded ZF rats, 1 mg/kg by gavage 15 min before fat emulsion (FIG. 5)): suppressed
- increase in the plasma glucose concentration after oral glucose loading ([2]; male fat-loaded ZF rats, 1 mg/kg by gavage, mixed carbohydrate 3.5 g/kg orally at 6 hr after fat loading (FIG. 5)): suppressed
- fasting plasma glucose concentration ([3]; overnight-fasted male Wistar rats, gavage, dose of 100 mg/kg, maximum change from value before drug administration (FIG. 6)): no effect
- fasting insulin concentration ([3]; overnight-fasted male Wistar rats, gavage, dose of 100 mg/kg, maximum change from value before drug administration (FIG. 7)): no effect

Compound: CC(C)[C@H]1CC[C@H](C(=O)N[C@H](Cc2ccccc2)C(=O)O)CC1 [nateglinide, (−)-N-(trans-4-isopropylcyclohexylcarbonyl)-D-phenylalanine, reference compound]
- increase in blood lipid by fat loading [4]: suppresses
- plasma glucose concentration (hypoglycemia) ([3]; overnight-fasted male Wistar rats, gavage, nateglinide 10, 30, 100 or 300 mg/kg, maximum change from value before drug administration (FIG. 6)): induced hypoglycemia
- plasma insulin concentration ([3]; overnight-fasted male Wistar rats, gavage, nateglinide 10, 30, 100 or 300 mg/kg, maximum change from value before drug administration (FIG. 7)): increased
